Laboratory results as given in patent publication US9771369B2, “Compounds and methods for kinase modulation, and indications therefor” (Plexxikon Inc., priority 2014, dated 2017).

Assays:
c-Kit kinase = c-Kit kinase (Homo sapiens (Human), UniProt P10721); test: c-Kit biochemical assay (AlphaScreen kinase activity)
Summary of the method: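 IC50 values come from 8-point, 1:3 compound titrations measuring inhibition of peptide phosphorylation by c-Kit (commercial or His-tagged E. coli-expressed) over 1 h at room temperature, read by AlphaScreen PY30/streptavidin beads. Low-ATP version: 10 μM ATP, 100 nM biotin-(E4Y)3; high-ATP version: 100 μM ATP, 30 nM biotin-(E4Y)10.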

[1] = system: BaF3-FL KIT D816V or BaF3-FL KIT V560G/D816V cell line; test: Cell-based assays of c-Kit mutant kinase activity (cell proliferation, ATPlite); conditions: at least one of the c-kit cell assays of Example 7
Summary of the method: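 BaF3 cells dependent on transfected full-length human KIT D816V or V560G/D816V (pCI-Neo, CMV promoter) were seeded at 1×10^4 cells/well and exposed to 8-point 1:3 dilutions from 10 μM top (0.2% DMSO) for three days at 37° C. ATPlite luminescence gave cell number; IC50 from concentration-response.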

c-Kit kinase, sequence (P10721 26-976): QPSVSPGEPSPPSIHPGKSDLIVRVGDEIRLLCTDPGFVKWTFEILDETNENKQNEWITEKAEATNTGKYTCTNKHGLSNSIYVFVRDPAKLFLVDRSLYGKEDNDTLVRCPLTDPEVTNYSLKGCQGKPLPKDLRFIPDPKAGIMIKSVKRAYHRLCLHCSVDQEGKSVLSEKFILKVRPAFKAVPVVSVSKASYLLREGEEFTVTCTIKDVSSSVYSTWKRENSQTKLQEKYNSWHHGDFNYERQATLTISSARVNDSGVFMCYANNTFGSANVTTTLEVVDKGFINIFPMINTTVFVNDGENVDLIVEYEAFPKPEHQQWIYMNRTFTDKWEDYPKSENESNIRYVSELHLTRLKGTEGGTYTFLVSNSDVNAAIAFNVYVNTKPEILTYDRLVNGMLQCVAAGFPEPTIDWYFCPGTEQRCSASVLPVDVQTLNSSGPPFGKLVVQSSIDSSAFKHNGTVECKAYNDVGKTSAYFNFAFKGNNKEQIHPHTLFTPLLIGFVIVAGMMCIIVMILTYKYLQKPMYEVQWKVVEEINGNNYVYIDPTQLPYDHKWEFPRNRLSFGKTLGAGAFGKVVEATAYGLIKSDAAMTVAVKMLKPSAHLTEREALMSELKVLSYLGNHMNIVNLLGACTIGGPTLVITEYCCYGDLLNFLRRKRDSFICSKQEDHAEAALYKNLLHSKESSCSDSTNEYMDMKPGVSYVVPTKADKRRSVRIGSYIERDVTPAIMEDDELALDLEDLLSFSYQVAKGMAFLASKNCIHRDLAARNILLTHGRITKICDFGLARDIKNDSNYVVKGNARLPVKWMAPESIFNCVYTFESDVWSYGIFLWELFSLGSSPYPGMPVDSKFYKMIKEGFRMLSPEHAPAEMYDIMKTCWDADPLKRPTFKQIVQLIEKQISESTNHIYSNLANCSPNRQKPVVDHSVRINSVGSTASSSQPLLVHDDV

## Cc1cc2c(N3CCC(C)(c4nc(C)c(-c5ccc6c(c5)OCCO6)[nH]4)CC3)ncnc2[nH]1 [P-3151, 4-[4-[5-(2,3-dihydro-1,4-benzodioxin-6-yl)-4-methyl-1H-imidazol-2-yl]-4-methyl-1-piperidyl]-6-methyl-7H-pyrrolo[2,3-d]pyrimidine]
c-Kit kinase
  IC50: 1 to 10 µM
[1]
  IC50: < 10 µM

## Cc1nn(C)cc1-c1cc2c(N3CCC(c4nc(C)c(-c5ccc(OC(F)(F)F)cc5)[nH]4)CC3)ncnc2[nH]1 [P-3122, 6-(1,3-dimethylpyrazol-4-yl)-4-[4-[4-methyl-5-[4-(trifluoromethoxy)phenyl]-1H-imidazol-2-yl]-1-piperidyl]-7H-pyrrolo[2,3-d]pyrimidine]
c-Kit kinase
  IC50: 0.0001 to 1 µM
[1]
  IC50: < 10 µM

## COc1cccc(-c2[nH]c(C3(C)CCN(c4ncnc5[nH]c(-c6ccc(C#N)cc6)cc45)CC3)nc2C)c1 [P-3167, 4-[4-[4-[5-(3-methoxyphenyl)-4-methyl-1H-imidazol-2-yl]-4-methyl-1-piperidyl]-7H-pyrrolo[2,3-d]pyrimidin-6-yl]benzonitrile]
c-Kit kinase
  IC50: 0.0001 to 1 µM
[1]
  IC50: < 10 µM

## Cc1cc2c(N3CCC(C)(c4nc(C)c(-c5ccc6c(c5)OCO6)[nH]4)CC3)ncnc2[nH]1 [P-3150, 4-[4-[5-(1,3-benzodioxol-5-yl)-4-methyl-1H-imidazol-2-yl]-4-methyl-1-piperidyl]-6-methyl-7H-pyrrolo[2,3-d]pyrimidine]
c-Kit kinase
  IC50: 1 to 10 µM
[1]
  IC50: < 10 µM

## COc1ccc(-c2cc3c(N4CCC(C)(c5nc(C)c(-c6ccc7c(c6)OCO7)[nH]5)CC4)ncnc3[nH]2)cn1 [P-3158, 4-[4-[5-(1,3-benzodioxol-5-yl)-4-methyl-1H-imidazol-2-yl]-4-methyl-1-piperidyl]-6-(6-methoxy-3-pyridyl)-7H-pyrrolo[2,3-d]pyrimidine]
c-Kit kinase
  IC50: 0.0001 to 1 µM
[1]
  IC50: < 10 µM

## COc1cc(-c2cc3c(N4CCC(c5nc(C(F)(F)F)c(-c6ccc(C)cc6)[nH]5)CC4)ncnc3[nH]2)ccn1 [P-3134, 6-(2-methoxy-4-pyridyl)-4-[4-[5-(p-tolyl)-4-(trifluoromethyl)-1H-imidazol-2-yl]-1-piperidyl]-7H-pyrrolo[2,3-d]pyrimidine]
c-Kit kinase
  IC50: 0.0001 to 1 µM
[1]
  IC50: < 10 µM

## Fc1ccc(-c2cc3c(N4CCC(c5nc(C6CC6)c(-c6ccccc6)[nH]5)CC4)ncnc3[nH]2)cc1 [P-3009, 4-[4-(4-cyclopropyl-5-phenyl-1H-imidazol-2-yl)-1-piperidyl]-6-(4-fluorophenyl)-7H-pyrrolo[2,3-d]pyrimidine]
c-Kit kinase
  IC50: 0.0001 to 1 µM
[1]
  IC50: < 10 µM

## COc1cc(-c2[nH]c(C3(C)CCN(c4ncnc5[nH]c(C)cc45)CC3)nc2C)ccc1C [P-3105, 4-[4-[5-(3-methoxy-4-methyl-phenyl)-4-methyl-1H-imidazol-2-yl]-4-methyl-1-piperidyl]-6-methyl-7H-pyrrolo[2,3-d]pyrimidine]
c-Kit kinase
  IC50: 1 to 10 µM
[1]
  IC50: < 10 µM

## COc1cc(-c2cc3c(N4CCC(c5nc(C6CC6)c(-c6ccccc6)[nH]5)CC4)ncnc3[nH]2)ccn1 [P-3008, 4-[4-(4-cyclopropyl-5-phenyl-1H-imidazol-2-yl)-1-piperidyl]-6-(2-methoxy-4-pyridyl)-7H-pyrrolo[2,3-d]pyrimidine]
c-Kit kinase
  IC50: 0.0001 to 1 µM
[1]
  IC50: < 10 µM

## COc1ccc(-c2[nH]c(C3(C)CCN(c4ncnc5[nH]c(-c6cnn(C(F)F)c6)cc45)CC3)nc2C)cc1C [P-3154, 6-[1-(difluoromethyl)pyrazol-4-yl]-4-[4-[5-(4-methoxy-3-methyl-phenyl)-4-methyl-1H-imidazol-2-yl]-4-methyl-1-piperidyl]-7H-pyrrolo[2,3-d]pyrimidine]
c-Kit kinase
  IC50: 0.0001 to 1 µM
[1]
  IC50: < 10 µM

## CCC1(c2nc(C)c(-c3ccc(OC)cc3)[nH]2)CCN(c2ncnc3[nH]c(C)cc23)CC1 [P-3140, 4-[4-ethyl-4-[5-(4-methoxyphenyl)-4-methyl-1H-imidazol-2-yl]-1-piperidyl]-6-methyl-7H-pyrrolo[2,3-d]pyrimidine]
c-Kit kinase
  IC50: 1 to 10 µM
[1]
  IC50: < 10 µM

## CCOc1cc(-c2[nH]c(C3CCN(c4ncnc5[nH]c(C)cc45)CC3)nc2C)ccc1C [P-3126, 4-[4-[5-(3-ethoxy-4-methyl-phenyl)-4-methyl-1H-imidazol-2-yl]-1-piperidyl]-6-methyl-7H-pyrrolo[2,3-d]pyrimidine]
c-Kit kinase
  IC50: 0.0001 to 1 µM
[1]
  IC50: < 10 µM

## CCC1(c2nc(C)c(-c3ccc4c(c3)OCCO4)[nH]2)CCN(c2ncnc3[nH]c(C)cc23)CC1 [P-3144, 4-[4-[5-(2,3-dihydro-1,4-benzodioxin-6-yl)-4-methyl-1H-imidazol-2-yl]-4-ethyl-1-piperidyl]-6-methyl-7H-pyrrolo[2,3-d]pyrimidine]
c-Kit kinase
  IC50: 1 to 10 µM
[1]
  IC50: < 10 µM

## Cc1nc(C2CCN(c3ncnc4[nH]c(-c5ccc(F)cc5)cc34)CC2)[nH]c1-c1ccc2c(c1)OC(F)(F)O2 [P-3109, 4-[4-[5-(2,2-difluoro-1,3-benzodioxol-5-yl)-4-methyl-1H-imidazol-2-yl]-1-piperidyl]-6-(4-fluorophenyl)-7H-pyrrolo[2,3-d]pyrimidine]
c-Kit kinase
  IC50: 1 to 10 µM
[1]
  IC50: < 10 µM

## CCOc1ccc(-c2[nH]c(C3(C)CCN(c4ncnc5[nH]c(-c6ccc(C#N)cc6)cc45)CC3)nc2C)cc1C [P-3160, 4-[4-[4-[5-(4-ethoxy-3-methyl-phenyl)-4-methyl-1H-imidazol-2-yl]-4-methyl-1-piperidyl]-7H-pyrrolo[2,3-d]pyrimidin-6-yl]benzonitrile]
c-Kit kinase
  IC50: 0.0001 to 1 µM
[1]
  IC50: < 10 µM

## COc1cc(-c2cc3c(N4CCC(c5nnc(-c6ccc(F)cc6)[nH]5)CC4)ncnc3[nH]2)ccn1 [P-3205, 4-[4-[5-(4-fluorophenyl)-4H-1,2,4-triazol-3-yl]-1-piperidyl]-6-(2-methoxy-4-pyridyl)-7H-pyrrolo[2,3-d]pyrimidine]
c-Kit kinase
  IC50: 10 to 300 µM
[1]
  IC50: < 10 µM

## CCOc1cc(-c2[nH]c(C3CCN(c4ncnc5[nH]c(-c6ccc(C#N)cc6)cc45)CC3)nc2C)ccc1C [P-3095, 4-[4-[4-[5-(3-ethoxy-4-methyl-phenyl)-4-methyl-1H-imidazol-2-yl]-1-piperidyl]-7H-pyrrolo[2,3-d]pyrimidin-6-yl]benzonitrile]
c-Kit kinase
  IC50: 0.0001 to 1 µM
[1]
  IC50: < 10 µM

## COc1cccc(-c2[nH]c(C3CCN(c4ncnc5[nH]c(-c6ccnc(OC)c6)cc45)CC3)nc2C(F)(F)F)c1 [P-3123, 4-[4-[5-(3-methoxyphenyl)-4-(trifluoromethyl)-1H-imidazol-2-yl]-1-piperidyl]-6-(2-methoxy-4-pyridyl)-7H-pyrrolo[2,3-d]pyrimidine]
c-Kit kinase
  IC50: 0.0001 to 1 µM
[1]
  IC50: < 10 µM

## Cc1nc(C2CCN(c3ncnc4[nH]c(-c5ccc(C#N)cc5)cc34)CC2)[nH]c1-c1ccc2c(c1)OC(F)(F)O2 [P-3110, 4-[4-[4-[5-(2,2-difluoro-1,3-benzodioxol-5-yl)-4-methyl-1H-imidazol-2-yl]-1-piperidyl]-7H-pyrrolo[2,3-d]pyrimidin-6-yl]benzonitrile]
c-Kit kinase
  IC50: 10 to 300 µM
[1]
  IC50: < 10 µM

## Cc1nc(C2CCN(c3ncnc4[nH]c(-c5ccc(C#N)cc5)cc34)CC2)[nH]c1-c1ccc(C(F)(F)F)cc1 [P-3137, 4-[4-[4-[4-methyl-5-[4-(trifluoromethyl)phenyl]-1H-imidazol-2-yl]-1-piperidyl]-7H-pyrrolo[2,3-d]pyrimidin-6-yl]benzonitrile]
c-Kit kinase
  IC50: 1 to 10 µM
[1]
  IC50: < 10 µM

## Cc1cc2c(N3CCC(c4nc(C)c(-c5ccc6c(c5)OCCO6)[nH]4)CC3)ncnc2[nH]1 [P-3121, 4-[4-[5-(2,3-dihydro-1,4-benzodioxin-6-yl)-4-methyl-1H-imidazol-2-yl]-1-piperidyl]-6-methyl-7H-pyrrolo[2,3-d]pyrimidine]
c-Kit kinase
  IC50: 1 to 10 µM
[1]
  IC50: < 10 µM

## Cc1nc(C2CCN(c3ncnc4[nH]c(-c5ccc(C#N)cc5)cc34)CC2)[nH]c1-c1ccc(C(F)F)cc1 [P-3162, 4-[4-[4-[5-[4-(difluoromethyl)phenyl]-4-methyl-1H-imidazol-2-yl]-1-piperidyl]-7H-pyrrolo[2,3-d]pyrimidin-6-yl]benzonitrile]
c-Kit kinase
  IC50: 1 to 10 µM
[1]
  IC50: < 10 µM

## CCC1(c2nc(C)c(-c3ccc4c(c3)OCO4)[nH]2)CCN(c2ncnc3[nH]c(C)cc23)CC1 [P-3143, 4-[4-[5-(1,3-benzodioxol-5-yl)-4-methyl-1H-imidazol-2-yl]-4-ethyl-1-piperidyl]-6-methyl-7H-pyrrolo[2,3-d]pyrimidine]
c-Kit kinase
  IC50: 1 to 10 µM
[1]
  IC50: < 10 µM
